This is an account of results in US20120083489A1, “BIS-PYRIDYLPYRIDONES AS MELANIN-CONCENTRATING HORMONE RECEPTOR ANTAGONISTS” (priority 2009, published 2012).

The target of this test is T1, hMCHR1 (Homo sapiens, UniProt Q99705).
T1 construct: expressed in transfected cells; host or cells: HEK293
T1 sequence (Q99705 whole entry): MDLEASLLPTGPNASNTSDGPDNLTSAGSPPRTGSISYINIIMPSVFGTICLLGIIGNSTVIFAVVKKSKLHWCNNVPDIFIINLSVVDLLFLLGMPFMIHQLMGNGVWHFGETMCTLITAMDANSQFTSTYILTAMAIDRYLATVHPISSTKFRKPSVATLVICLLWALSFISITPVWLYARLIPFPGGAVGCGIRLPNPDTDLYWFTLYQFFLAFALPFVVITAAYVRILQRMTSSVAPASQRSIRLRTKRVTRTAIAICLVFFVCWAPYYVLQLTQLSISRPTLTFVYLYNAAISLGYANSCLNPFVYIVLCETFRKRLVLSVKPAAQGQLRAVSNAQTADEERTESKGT
Briefly: MCHR1 pIC50 determination FLIPR assay. The test is classed as cell-based. To be noted: HEK293 cells stably transfected with hMCHR1; MCH challenge at 4xEC50. The protocol:
MCHR1 plC50 Determination FLIPR™Assay: HEK293 cells stably transfected with hMCHR1 were propagated as adherent cultures at 37° C. in a humidified incubator. Cells were split 1:8 at 90% confluency two times per week. New cell stocks were recovered from storage every two months. Cells were plated in black 384-well plates (Greiner) 24 hours prior to assay at 15,000 cells/well in 50 μL DMEM/F12, 10% FBS, 2 mM I-glutamine. Compounds to be profiled were prepared by making a stock solution at 3×10^−3M in 100% DMSO. The stock solutions were serially diluted 1:4 in 100% DMSO using JANUS (PerkinElmer) liquid handling instrument to allow for an 11 point curve in singlicate. At the time of the assay, the media was removed from the cell plate by aspiration, followed by the addition of 20 μL of loading buffer (Calcium 4 Kit, […]). Following 50 min incubation at 37° C., 10 μL of compound was added to the plates via the FLIPR™ instrument (Molecular Dynamics corporation). The plates were incubated at room temperature for 15 minutes along with an MCH peptide agonist challenge plate. On the FLIPR™, a basal response was collected over 10 seconds followed by the addition of 10 μL of MCH challenge concentration at 4×EC50. Data was collected over 4 minutes and subjected to a nonlinear regression analysis curve fitting program to generate plC50s.
As usually defined, the IC50 is the point on the concentration scale where inhibition reaches its midpoint. Lower therefore signals higher potency. In the case of `CCN(CC)CCNc1ccc(-n2ccc(OCc3ccc(Cl)cn3)cc2=O)cn1` [Example 8], half-maximal inhibition (IC50) required 25 nM.
The same measure for `CS(=O)(=O)NCCNc1ccc(-n2ccc(OCc3ccc(Cl)cn3)cc2=O)cn1` [Example 20]: 50 nM; for `CCS(=O)(=O)NCCNc1ccc(-n2ccc(OCc3ccc(Cl)cn3)cc2=O)cn1` [Example 27]: 90 nM.
